US12403127B2, “Specifically meso-substituted porphyrins and chlorins for photodynamic therapy” (biolitec Unternehmensbeteiligungs II AG, priority 2014, dated 2025)

What was measured:
[1] = test system: HT29 (human colon adenocarcinoma cell line); assay: Cell test of photosensitizing activity (XTT cell viability after 652 nm laser irradiation) in HT29; assay type: cell-based; conditions: 2 or 10 μM photosensitizer, 24 h incubation, 50 J/cm^2, XTT viability 24 h after irradiation
Description: (§1) The photosensitizing activity was determined in the following cell lines: • HT29 (human colon adenocarcinoma cell line) • L929 (mouse fibroblast cell line) • A431 (human epidermoid carcinoma cell line) • A253 (submaxillary salivary gland, epidermoid cell line) • CAL-27 (human tongue squamous cell carcinoma cell line).
(§2) The cell lines were grown in DMEM (PAA Laboratories GmbH) supplemented with 10% heat-inactivated fetal calf serum (FCS, PAA Laboratories GmbH), 1% penicillin (10000 IU) and streptomycin (10000 μg/ml, PAA Laboratories GmbH). Cells were kept as a monolayer culture in a humidified incubator (5% CO2 in air at 37° C.).
(§3) A photosensitizer stock solution (2 mM) was performed in DMSO and was kept in the dark at 4° C. Further dilution was performed in DMEM medium without phenol red supplemented with 10% FCS to reach a final photosensitizer concentration of 2 or 10 μM, respectively.
(§4) 2·10^4 cells/ml were seeded in micro plates ([…]). Cells were incubated with fresh medium (DMEM without phenol red) containing 10% FCS with 2 or 10 μM of the photosensitizer for 24 h before light exposure. […]
(§5) The cell viability was assessed by the XTT assay. […]
(§6) The absorbance of the samples was measured with a spectrophotometer (Infinite 200, Tecan Group Ltd.) at a wavelength of 490 nm. In order to measure reference absorbance (to measure non-specific readings) a wavelength of 630-690 nm was used.

[2] = test system: CAL-27 (human tongue squamous cell carcinoma cell line); assay: Cell test of photosensitizing activity (XTT cell viability after 652 nm laser irradiation) in CAL-27; assay type: cell-based; conditions: 2 or 10 μM photosensitizer, 24 h incubation, 50 J/cm^2, XTT viability 24 h after irradiation
Description: as §1, §2, §3, §4, §5, §6

5,10,15-tris-(3-hydroxy-phenyl)-20-[4-(butyloxy)-tetra-fluorphenyl]-porphyrin [Example 7.13]
photodynamic activity (photo toxicity, "Laser") in the HT29 cell line [1]: lack activity | PDT activity against CAL-27 cells [2]: show PDT activity
